This is an account of results in patent US12624039B2, “BTK inhibitors” (DIZAL (JIANGSU) PHARMACEUTICAL CO., LTD., priority 2020, dated 2026).

Data set [1] is described as follows: In vitro plasma and brain binding assay (free fractions). The class given is in vitro ADME, rat. Here is the method:
(§1) A Short oral absorption (SOA) model is an in-vivo screening model to identify brain penetration of a compound. To evaluate the potential of a compound to cross the blood-brain barrier in rats, total brain-to-plasma ratio (Kp,brain) was measured AUCbrain/AUCplasma. CSF-to-plasma ratio (Kp,CSF) was determined by either AUCCSF/AUCplasma or the average of CSF-to-plasma ratios at available time points after oral administration, respectively. Free fractions of in biological matrix were determined by in vitro plasma and brain binding assay in a separate study. Kp,uu,brain and Kp,uu,CSF were calculated by the following equations: (1) Kp,uu,brain=Kp, brain×fu,brain/fu,plasma; (2) Kp,uu,CSF=Kp,CSF/fu,plasma.

The test system of another data set is TMD-8 cells. As to the kind of experiment: TMD-8 anti-proliferation assay. To be noted: 72 hours. The class given is cell-based. Here is the method:
TMD-8 Anti-Proliferation Assay
TMD-8 cells were prepared in RPMI1640 media containing 10% foetal bovine, and plated in 384 well plates at 1500 cells per well, The cells were incubated overnight at 37° C., 5% CO2. After incubation, compounds with different concentration were added to the assay plates and incubate cells for a further 72 hours at 37° C., 5% CO2. Following 72 hours incubation, 15 μl of CellTiter 96® AQueous One Solution Reagent was added to each well and the plates incubated at room temperature for 30 mins. Cell viability was determined using the CellTiter-Glo (Promega, USA). The CellTiter-Glo assay was performed according to the manufacturer's instructions, and luminescence was determined in a multi-label reader (Envision, PerkinElmer, USA). The data were processed in XLfit software.

Data set [2] addresses T1, BTK-C481S in HEK293-BTK(C481S) cells (Homo sapiens, UniProt Q06187, C481S).
T1 construct: Full-length cDNAs of BTK containing C481S mutation was generated by mutagenesis; expressed in transfected cells
Kind of data set: HEK293-BTK(C481S) p-BTK ELISA. The class given is cell-based. To be noted: 1.5 hour. Here is the method: (§2) The mutated BTK cDNAs were confirmed by sequencing. […] The transfected cells were selected in 2 μg/mL of puromycin. Stable polyclonal cell lines were confirmed by WB and used for further study. […] All the cells were maintained in a humidified incubator at 37° C. with 5% CO2.
(§3) The test compounds were added to the cells and cells were incubated for 1.5 hour at 37° C., 5% CO2. […] The plate was read on a Multiscan Spectrum reader set to 450 nm wavelengths. The data were processed in Graph Pad Prism software.
A general note: An ELISA detects its analyte on a solid surface through an enzyme-linked reagent.

A short description of data set [3]: Short oral absorption (SOA) assay in rats, brain penetration. The class given is in vivo. To be noted: rat. Here is the method: Short Oral Absorption (SOA) Assay in Rats.
as §1

The nature of the next data set: DMSO solubility. It is filed as physicochemical.
The target in data set [4] is T2, BTK(WT) in HEK293-BTK(WT) cells (Homo sapiens, UniProt Q06187).
T2 construct: Full-length cDNAs of BTK containing C481S mutation was generated by mutagenesis; expressed in transfected cells
As to the kind of experiment: HEK293-BTK(WT) p-BTK ELISA. The class given is cell-based. The settings on record: 1.5 hour. The procedure:
as §2, §3

The nature of data set [5]: Log D determination (octanol/phosphate buffer). The class given is physicochemical. To be noted: 25° C. The procedure:
10 μL of working solution of each cassette is placed in order into respective 96-well rack position (Log D plate). Add 500 μL of saturated octanol into each vial of the above cap-less Log D plate followed by the addition of 500 μL of saturated phosphate buffer. Seal with a moulded PTFE/SIL 96-Well Plate Cover.
The samples are centrifuged at 4,000 rpm at 25° C. for 30 minutes to separate the phases. Pipette and syringe are used to pipette about 100 μL from the octanol and buffer phases to a new 96-well plate, respectively.
5 μL of octanol sample is transferred to a new 96-well plate, followed by addition of 495 μL of a mixture of H2O and acetonitrile containing internal standard (1:1) as 100 fold octanol samples. Vortex for 5 minutes at 1,000 rpm.
50 μL of 100 fold samples are transferred to new 96-well plate, followed by addition of 450 μL of a mixture of H2O and acetonitrile containing internal standard (1:1) as 1,000 fold octanol samples. Vortex for 5 minutes at 1,000 rpm.
The 1,000 folds octanol samples are serially diluted into 10,000, 100,000 and 1,000,000 folds with a mixture of H2O and acetonitrile containing internal standard (1:1).
50 μL of buffer samples are transferred to new 96-well plate, followed by addition of 450 μL of a mixture of H2O and acetonitrile containing internal standard (1:1) as 10 folds buffer samples. Vortex for 5 minutes at 1,000 rpm.
The 10 folds buffer samples are serially diluted into 100, 1,000 and 10,000 folds with a mixture of H2O and acetonitrile containing internal standard (1:1). The samples are evaluated by LC/MS/MS analysis. All compounds are tested in singlicate.
All calculations are carried out using Microsoft Excel. The concentrations of test compound in octanol/buffer solution are evaluated by LC/MS/MS. Calculate the Log D value of the test compound as follows:
[formula] DF means the dilution factor. Procedure for Protein Binding Measurements in Human Plasma by Using Equilibrium Dialysis

The target in a further data set is T3, Recombinant BTK(C481S) (Homo sapiens, UniProt Q06187, C481S).
T3 construct: purchased SignalChem
As to the kind of experiment: BTK C481S HTRF kinase assay. It is filed as biochemical. To be noted: 30 min pre-incubation, 120 min reaction. Here is the method: [The procedure below names another variant; the source lists this variant under the same test.] Recombinant BTK wild type (BTK WT) was purchased from Thermo fisher.
In brief, recombinant kinases were pre-incubated in the presence or absence of compound at room temperature for 30 minutes. The reaction was initiated by the addition of the ATP and substrate peptide which could be phosphorylated by kinases in the reaction. After 120 minutes incubation, the reaction was stopped by the addition of the detection reagent mix containing EDTA.
Background: In TR-FRET formats the signal depends on donor and acceptor labels being close together.

Converted amounts (≈) assume the structure as drawn. Where two headings read alike, the source gives them in different places.

T3 sequence (Q06187 whole entry C481S): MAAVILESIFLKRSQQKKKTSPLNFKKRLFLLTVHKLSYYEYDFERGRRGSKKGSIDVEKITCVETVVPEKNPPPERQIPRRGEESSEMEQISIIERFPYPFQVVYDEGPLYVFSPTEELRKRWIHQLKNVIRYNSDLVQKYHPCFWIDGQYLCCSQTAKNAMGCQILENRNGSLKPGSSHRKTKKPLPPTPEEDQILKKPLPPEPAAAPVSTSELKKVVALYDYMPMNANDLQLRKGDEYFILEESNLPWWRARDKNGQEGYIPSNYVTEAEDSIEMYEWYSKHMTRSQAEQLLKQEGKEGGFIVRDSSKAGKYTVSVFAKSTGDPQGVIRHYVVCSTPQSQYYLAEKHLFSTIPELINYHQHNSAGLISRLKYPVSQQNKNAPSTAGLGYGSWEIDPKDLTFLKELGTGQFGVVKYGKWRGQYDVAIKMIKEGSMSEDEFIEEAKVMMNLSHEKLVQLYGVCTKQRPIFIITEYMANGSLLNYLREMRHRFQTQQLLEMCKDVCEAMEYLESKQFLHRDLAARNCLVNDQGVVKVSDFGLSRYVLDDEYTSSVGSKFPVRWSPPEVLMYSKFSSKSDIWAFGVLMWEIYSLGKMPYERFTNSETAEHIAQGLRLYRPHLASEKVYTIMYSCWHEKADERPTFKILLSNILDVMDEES
T1 sequence (Q06187 whole entry C481S): as above

As to `Nc1nccn2c(C3CCC(CO)OC3)nc(-c3ccc(Oc4ccccc4)cc3F)c12` (single isomer, unassigned) [Compound 2, Trans-(5-(8-amino-1-(2-fluoro-4-phenoxyphenyl)imidazo[1,5-a]pyrazin-3-yl)tetrahydro-2H-pyran-2-yl)methanol], the fraction unbound was 0.033 in data set [1] (rat brain free fraction, read-out: Rat fu, br (%)) and 0.038 in data set [1] (rat plasma free fraction, read-out: Rat fu, pl (%)). Also, the IC50 – broadly, the concentration that gives 50% inhibition – with TMD-8 cells stood at 22.7 nM; in data set [2], 70.6 nM; in data set [4] it was 27.3 nM; at Recombinant BTK(C481S) it was 0.66 nM. Further, the concentration ratio (Kp) (usually the ratio of the level in a tissue or fluid to that in plasma or blood) in data set [3] (brain, AUCbrain/AUCplasma) was 1.35. Also, the Kp uu in data set [3] (Kp,CSF/fu,plasma, read-out: Kp, uu CSF) came to 0.86; in data set [3] (Kp,brain×fu,brain/fu,plasma, read-out: Kp, uu brain) it was 1.19. In “DMSO solubility”, the solubility (usually how much of the substance goes into solution per volume) is 15.1 µM (≈ 6.56 µg/mL). In addition, the logD (usually lipophilicity at a set pH, counting ionised and neutral species) at 2 h in data set [5] amounted to 3.01.
